The values that follow come from patent US7378237B2, “Development of method for screening physiologically active pyrrole imidazole derivative” (Japan Science & Technology Corporation, priority 1999, dated 2008).

For this assay, the system named is double-stranded DNA. Description: Alkylation and cleavage of double-stranded DNA by ImPyLDu86 (gel, cleavage bands by heating). The assay is classed as biochemical. As to conditions: cleavage mainly at site 1 and site 2, bands after heating, FIG. 1. On the procedure:
Reactivities of thus synthesized PyPyLDu86 and ImPyLDu86 with DNA were determined.
Locations of alkylation can be observed as cleavage bands by heating. As a result, the double-stranded DNA was cleaved mainly at the site 1 and the site 2 from a low concentration, and it was understood that the alkylation occurred simultaneously in the double-stranded DNA. No compound to generate such a cleavage has been known until now, and it can be surely regarded as an artificial restriction enzyme.

For `COC(=O)c1c(C)[nH]c2c1C13CC1CN(C(=O)/C=C/c1cc(NC(=O)c4nc(NC(C)=O)cn4C)cn1C)C3=CC2=O` (stereo not shown) [ImPyLDu86], the “ratio of cleavage of double-stranded DNA” value is reported as 70%.
